According to US20210395327A1, “Growth Hormone-Releasing Hormone Antagonists and Uses Thereof” (United States Government As Represented By The Department …, priority 2019, published 2021):
Non-standard residues stand in square brackets, D forms with d. Residues, ends and D or L forms follow the SMILES beside them. *: point of attachment. Phenylacetyl(2,3,4,5,6-F5) = O=C(Cc1c(F)c(F)c(F)c(F)c1F)*; Phe(F5) = N[C@@H](Cc1c(F)c(F)c(F)c(F)c1F)C(=O)O; Phe(4-Cl) = N[C@@H](Cc1ccc(Cl)cc1)C(=O)O; hArg = N=C(N)NCCCC[C@H](N)C(=O)O; 12Ado = NCCCCCCCCCCCC(=O)O; Nle = CCCC[C@H](N)C(=O)O; Orn = NCCC[C@H](N)C(=O)O; Abu = CC[C@H](N)C(=O)O; PhAc = O=C(Cc1ccccc1)*

Columns and labels:
[1] = system: NCI-N87 stomach cancer cells; assay: In vitro cell viability (CellTiter 96), N87; assay type: cell-based, human; conditions: for In vitro relative inhibitory potency in comparison to MIA-602, NCI-N87: Table 3B, 5 μM for 72 H, MIA-602 = 1
Outline: (§1)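 Potency is reported as percent inhibition of viability compared with the reference antagonist MIA602, measured with CellTiter 96 aqueous one solution reagent. Serum-starved cells (0.5% FBS, 24 h) were treated for 72 h, mostly at 5 μM, otherwise 2 μM.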

[2] = system: CFPAC-1 pancreatic cancer cells; assay: In vitro cell viability, CFPAC-1; assay type: cell-based, human; conditions: for In vitro relative inhibitory potency in comparison to MIA-602, CFPAC-1: Table 3B, 5 μM for 72 H, MIA-602 = 1
Outline: as §1

[3] = system: lung cancer HCC827 xenograft; assay: Xenograft tumor growth in nude mice, HCC827; assay type: in vivo; conditions: Table 4B, Lung Ca HCC827, 7 weeks, 5 μg/day s.c.; for % Inhibition: vs control
Description: (§2) The peptides' activity was compared with GHRH antagonist MIA-602. All statistical analyzses were performed from comparing GHRA antagonists to non-treated tumor (control).
(§3) Peptides and chemicals. GHRH antagonists MIA-602 and AVR-GHRH antagonists (see Table 2 above) were synthesized by solid phase methods and purified by HPLC. The peptides were dissolved in DMSO and further diluted in 10% 1,2-propanediol. The final concentration of peptides was 50 µg/ml in 10% 1,2-propanediol containing 0.1% of DMSO.
(§4) Cell culture. Human cancer cell lines including pancreatic (PANC-1 and CFPAC-1), lung (HCC827 and H460), stomach (NCI-N87), prostate (PC3), brest (MX-1 and HCC-1806), colorectal (HT-29), and ovarian (SK-OV-3 and OVCAR-3) were obtained from the American Type Culture Collection (ATCC) and cultured at 37° C. in a humidified 95% air/5% CO2 atmosphere in the medium recommended by ATCC.
(§5) Xenograft models of human cancers in nude mice. Female athymic (NCr nu/nu) nude mice, 5- to 6-weeks-old, obtained from the Envigo labs (Tampa, Fla.), were housed in laminar airflow cabinets under pathogen-free conditions with a 12-h light/12-h dark schedule, and were fed autoclaved standard chow and water. To generate mice with xenografted tumors, tumor xenografts were initiated by subcutaneous (s.c.) injection of 107 human cancer cells into female nude mice. After about 4 weeks the resulting tumors were dissected and collected after removing necrosis tissues. The tumors were then cut into particles with size of 3 mm3 and transplanted s.c. by trocar needle into experimental animals. When tumors grew to the size of 50-60 mm3 (by volume), mice were randomized into groups and treated daily for 4-8 weeks by subcutaneous administration of 5 μg of GHRH antagonists MIA-602 or AVR-compounds (2-10 μg as indicated), or vehicle solutions (0.1% DMSO in 10% 1,2-propanediol) respectively. Tumor sizes were measured weekly.
(§6) Statistical analysis. One-way ANOVA followed by Bonferroni comparison were performed. Data are expressed as Mean±SEM. To determine statistical significance between animal groups, two-tailed Student's t-test was conducted. Differences were considered significant when p<0.05.
(§7) Results. […] FIG. 1A-N represents in vivo inhibition of tumor growth during the treatment with GHRH antagonist MIA-602 and selected AVR antagonists in nude mice xenografted with various human tumors including pancreatic cancer PANC-1 (FIG. 1A) and CFPAC-1 (FIG. 1I); lung cancer HCC827 (FIGS. 1B, C) and H460 (FIG. 1H); stomach cancer N87 (FIGS. 1D-F); colon cancer HT-29 (FIG. 1G); breast cancer MX-1 and HCC-1806 (FIGS. 1J, K); ovarian cancer SK-OV-3 and OVACAR-3 (FIGS. 1 L, M) and prostate cancer PC3 (FIG. 1N). See also Table 5.

[4] = system: stomach cancer N87 xenograft; assay: Xenograft tumor growth in nude mice, N87; assay type: in vivo; conditions: for % Inhibition: vs control
Description: as §2, §3, §4
as §5, with “mice were randomized into groups and treated daily for 4-8 weeks by subcutaneous administration” left out
as §6, §7

[5] = Table 4E, Stomach Ca N87, 4 weeks, 2 μg/day s.c.
[6] = Table 4E, Stomach Ca N87, 4 weeks, 5 μg/day s.c.
[7] = antagonist 5 μM for 72 h, cell proliferation assay, MIA602 = 1
[8] = Table 4D, Stomach Ca N87, 10 weeks, 2 μg/day s.c.
[9] = Table 4D, Stomach Ca N87, 10 weeks, 5 μg/day s.c.
[10] = Table 4F, Stomach Ca N87, 4 weeks, 5 μg/day s.c.

Row | Compound | In vitro relative inhibitory potency in comparison to MIA-602, NCI-N87 [1] | In vitro relative inhibitory potency in comparison to MIA-602, CFPAC-1 [2] | Tumor Growth % [3] | % Inhibition [3] | Tumor Growth % [4, 5] | % Inhibition [4, 5] | Tumor Growth % [4, 6] | % Inhibition [4, 6] | relative inhibitory potency in comparison to MIA-602, Stomach N87 [1, 7] | relative inhibitory potency in comparison to MIA-602, Pancreatic CFPAC-1 [2, 7] | Tumor Size (mm^3) [4, 8] | % Inhibition [4, 8] | Tumor Size (mm^3) [4, 9] | % Inhibition [4, 9] | Tumor Growth % [4, 10] | % Inhibition [4, 10]
1 | CCCC[C@H](NC(=O)[C@@H](NC(=O)[C@H](CC(=O)O)NC(=O)[C@H](CCC(N)=O)NC(=O)[C@H](CC(C)C)NC(=O)[C@H](CC(C)C)NC(=O)[C@H](CCCN)NC(=O)[C@H](Cc1c[nH]cn1)NC(=O)[C@H](C)NC(=O)[C@H](CO)NC(=O)[C@H](CC(C)C)NC(=O)[C@H](CCC(N)=O)NC(=O)[C@H](CC)NC(=O)[C@H](CC(C)C)NC(=O)[C@@H](NC(=O)[C@H](CCCN)NC(=O)[C@H](Cc1c[nH]cn1)NC(=O)[C@H](Cc1c(F)c(F)c(F)c(F)c1F)NC(=O)[C@H](CCCCNC(=N)N)NC(=O)[C@H](C)NC(=O)[C@@H](NC(=O)[C@H](Cc1ccc(Cl)cc1)NC(=O)[C@@H](NC(=O)[C@H](C)NC(=O)[C@H](CC(=O)O)NC(=O)[C@@H](CCCNC(=N)N)NC(=O)[C@H](Cc1ccc(O)cc1)NC(=O)CCCCCCCCCCCNC(=O)Cc1c(F)c(F)c(F)c(F)c1F)[C@@H](C)CC)[C@@H](C)O)C(C)C)[C@@H](C)CC)C(=O)N[C@H](CCCNC(=N)N)C(=O)N[C@@H](CCCCNC(=N)N)C(=O)NCCCCCCCCCCCC(=O)NC [AVR-543, 5FPhAC-Ada-Tyr-DArg-Asp-Ala-Ile-Cpa-Thr-Ala-Har-5FPhe-His-Orn-Val-Leu-Abu-Gln-Leu-Ser-Ala-His-Orn-Leu-Leu-Gln-Asp-Ile-Nle-DArg-Har-Ada-NHCH3] ({Phenylacetyl(2,3,4,5,6-F5)-12Ado}-Y[dR]DAI[Phe(4-Cl)]TA[hArg][Phe(F5)]H[Orn]VL[Abu]QLSAH[Orn]LLQDI[Nle][dR][hArg][12Ado]-NHMe) | 0.908 | 2.05 | 806.0% | 38.6% | 406.8% | 48.4% | 313.90% | 64.8% |  |  |  |  |  |  |  | 
2 | CCCC[C@H](NC(=O)[C@@H](NC(=O)[C@H](CC(=O)O)NC(=O)[C@H](CCC(N)=O)NC(=O)[C@H](CC(C)C)NC(=O)[C@H](CC(C)C)NC(=O)[C@H](CCCN)NC(=O)[C@H](Cc1c[nH]cn1)NC(=O)[C@H](C)NC(=O)[C@H](CO)NC(=O)[C@H](CC(C)C)NC(=O)[C@H](CCC(N)=O)NC(=O)[C@H](CC)NC(=O)[C@H](CC(C)C)NC(=O)[C@@H](NC(=O)[C@H](CCCN)NC(=O)[C@H](Cc1c[nH]cn1)NC(=O)[C@H](Cc1ccc(OC)cc1)NC(=O)[C@H](CCCCNC(=N)N)NC(=O)[C@H](C)NC(=O)[C@@H](NC(=O)[C@H](Cc1c(F)c(F)c(F)c(F)c1F)NC(=O)[C@@H](NC(=O)[C@H](C)NC(=O)[C@H](CC(=O)O)NC(=O)[C@@H](CCCNC(=N)N)NC(=O)[C@H](Cc1ccc(O)cc1)NC(=O)CCCCCCCCCCCNC(=O)Cc1ccccc1)[C@@H](C)CC)[C@@H](C)O)C(C)C)[C@@H](C)CC)C(=O)N[C@H](CCCNC(=N)N)C(=O)N[C@@H](CCCCNC(=N)N)C(N)=O [MIA-602, PhAC-Ada, Tyr D-Arg, Asp, Ala, Ile, 5FPhe, Thr, Ala, Har, Tyr(Me), His, Orn, Val, Leu, Abu, Gin, Leu, Ser, Ala, His, Om, Leu, Leu, Gin, Asp, Ile; Nle, D-Arg, Har NH2, reference compound] ({PhAc-12Ado}-Y[dR]DAI[Phe(F5)]TA[hArg]Y(Me)H[Orn]VL[Abu]QLSAH[Orn]LLQDI[Nle][dR][hArg]-NH2) | 1 | 1 | 662.2% | 49.5% |  |  | 427.20% | 52.1% | 1 | 1 | 1065.00 mm^3 | 13.0% | 767.00 mm^3 | 37.3% | 427.20% | 52.1%
